Entries after “also recorded” stand apart in the source; their conditions may differ. Structures can show the parent of a compound that is named as a salt.
Legend:
[1] = target: T1, P2X2 (Homo sapiens, UniProt Q9UBL9); conditions: read-out: IC50 P2X2; cited from earlier work
T1 sequence (Q9UBL9 1-471): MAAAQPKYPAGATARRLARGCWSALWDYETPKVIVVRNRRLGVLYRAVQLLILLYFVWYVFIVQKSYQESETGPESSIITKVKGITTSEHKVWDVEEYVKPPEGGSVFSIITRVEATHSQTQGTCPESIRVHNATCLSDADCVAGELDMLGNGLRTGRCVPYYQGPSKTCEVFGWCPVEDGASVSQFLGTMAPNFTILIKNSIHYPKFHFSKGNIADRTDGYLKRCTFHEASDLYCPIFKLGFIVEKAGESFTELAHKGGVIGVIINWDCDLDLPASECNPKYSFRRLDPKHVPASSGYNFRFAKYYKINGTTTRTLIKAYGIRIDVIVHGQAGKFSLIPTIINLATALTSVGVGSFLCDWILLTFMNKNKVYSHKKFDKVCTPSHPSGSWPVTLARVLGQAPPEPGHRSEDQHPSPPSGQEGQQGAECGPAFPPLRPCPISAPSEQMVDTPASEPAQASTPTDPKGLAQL

[2] = test system: optic nerve oligodendrocytes; assay: Oxygen and glucose deprivation (OGD) cell death in oligodendrocyte cultures (calcein-AM); type: cell-based, Sprague-Dawley rats; conditions: 1h OGD, calcein 24h later; PPADS 100 µM, BBG 50 nM, CNQX 30 µM, APV 100 µM, apyrase 20 U/ml, ARL67156 100 µM, CBX 20 µM, FFA 100 µM, MFQ 1 nM
Protocol: (§1) Primary cultures of oligodendrocytes derived from optic nerves of 12 day-old Sprague-Dawley rats were obtained as previously described (Matute et al., 1997 Proc Natl Acad Sci U S A 94:8830-8835.).Cells were maintained at 37°C and 5% CO2 in a chemically defined medium (Matute et al., 1997 Proc Natl Acad Sci U S A 94:8830-8835.). After 2-4 days in vitro, cultures were composed of at least 98% 04/Ga1C^+ cells. No microglial cells were detected in these cultures. […] Cell death was determined 24h later using calcein-AM (Invitrogen) as previously described (Matute et al., 1997 Proc Natl Acad Sci U S A 94:8830-8835.). Antagonists were present during in vitro ischaemia and during the next 24h incubation period. […] To assay the levels of reactive oxygen species (ROS), cells were loaded with 40 µM 2',7'- dichlorodihyfluoresceindiacetate (DCFDA; Invitrogen) and 1 µM calcein red-orange (Molecular Probes) immediately after OGD. Calcein was used to quantify the number of cells within the reading field. Fluorescence was measured as above and values were plotted as the percentage of DCFDA/calcein red-orange fluorescence versus control. The changes in mitochondrial membrane potential were monitored with 5,5',6,6'-tetrachloro-1,1',3,3'-tetraethylbenzimidazolcarbocyanine iodide (JC-1; Molecular Probes). Immediately after OGD, cells were loaded with JC-1 (3 µM) at 37°C for 30 min. The changes in the membrane potential were calculated as the red (emission at 590)/green (emission at 520) ratio in each condition and results were normalized to control.

[3] = test system: cultured optic nerve oligodendrocytes; assay: ATP release measurement (luciferin/luciferase) in oligodendrocyte cultures after OGD; type: cell-based, Sprague-Dawley rats
Protocol: as §1
ATP levels were measured using a Luciferin/Luciferase assay kit (Invitrogen) after 1h normoxia or OGD in oligodendrocyte cultures and in isolated optic nerves according to the manufacturer's instructions. The luminescence was measured with a luminometer Synergy-HT (BioTek) with an integration time of 3 sec. Because ATP was measured in the culture medium and in the solution bathing optic nerves, the concentration of ATP at the extracellular surface, near the vicinity of the receptor was underestimated (Joseph et al., 2003. J Biol Chem 278:23331-23342). The limit of ATP detection was 1 nM and luminescence was linear with increasing ATP concentrations to 1000 nM. The total amount of ATP was calculated according to standard curves and ATP release was expressed in percentage vs control.

[4] = test system: optic nerves; assay: Optic nerve ischaemia (OGD), tissue damage by LDH release; design: species or system rats; conditions: P28 rat optic nerves, 1h OGD + 2h reperfusion; PPADS 1 mM, BBG 50 nM, oATP 1 mM, apyrase 20 U/ml, MFQ 1 µM, CBX 100 µM, FFA 1 mM
Protocol: After 1h OGD at 37°C, the medium was replaced with fresh solution containing glucose and equilibrated with 95% O2, 5% CO2 and the nerves were incubated for another 2h at 37°C to simulate reperfusion.

[5] = target: T2, P2X7 (Homo sapiens, UniProt Q99572); conditions: cited from earlier work
T2 sequence (Q99572 1-595): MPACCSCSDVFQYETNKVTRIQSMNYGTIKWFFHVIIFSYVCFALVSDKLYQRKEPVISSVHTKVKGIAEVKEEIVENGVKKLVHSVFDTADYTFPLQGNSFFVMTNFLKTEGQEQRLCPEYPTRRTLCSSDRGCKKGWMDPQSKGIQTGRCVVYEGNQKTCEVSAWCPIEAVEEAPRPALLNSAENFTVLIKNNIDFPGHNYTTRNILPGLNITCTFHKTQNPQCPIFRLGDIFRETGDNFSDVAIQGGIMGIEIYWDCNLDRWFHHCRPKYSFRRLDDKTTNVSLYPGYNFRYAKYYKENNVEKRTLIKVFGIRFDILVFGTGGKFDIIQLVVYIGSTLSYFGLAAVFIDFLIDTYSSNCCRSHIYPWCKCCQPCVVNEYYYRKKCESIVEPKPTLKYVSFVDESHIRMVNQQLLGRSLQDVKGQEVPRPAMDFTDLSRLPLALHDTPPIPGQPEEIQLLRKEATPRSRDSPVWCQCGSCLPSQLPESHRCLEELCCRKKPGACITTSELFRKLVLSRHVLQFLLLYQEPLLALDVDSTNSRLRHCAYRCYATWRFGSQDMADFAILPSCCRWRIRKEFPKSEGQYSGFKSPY

[6] = target: T3, P2X1 (Homo sapiens, UniProt P51575); conditions: read-out: IC50 P2X1; cited from earlier work
T3 sequence (P51575 1-399): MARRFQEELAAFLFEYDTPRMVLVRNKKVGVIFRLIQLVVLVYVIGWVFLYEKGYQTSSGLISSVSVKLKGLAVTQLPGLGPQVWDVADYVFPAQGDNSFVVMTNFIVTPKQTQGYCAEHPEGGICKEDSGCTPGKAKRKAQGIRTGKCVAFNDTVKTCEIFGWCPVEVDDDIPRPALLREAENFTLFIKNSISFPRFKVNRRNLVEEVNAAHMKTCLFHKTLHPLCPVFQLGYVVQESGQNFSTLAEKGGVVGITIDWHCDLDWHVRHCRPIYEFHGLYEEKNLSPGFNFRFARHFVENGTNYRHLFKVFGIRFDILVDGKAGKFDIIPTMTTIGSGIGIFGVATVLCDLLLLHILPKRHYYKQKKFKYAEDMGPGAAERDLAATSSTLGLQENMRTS

[7] = target: T4, P2X3 (Homo sapiens, UniProt P56373); conditions: read-out: IC50 P2X3; cited from earlier work
T4 sequence (P56373 1-397): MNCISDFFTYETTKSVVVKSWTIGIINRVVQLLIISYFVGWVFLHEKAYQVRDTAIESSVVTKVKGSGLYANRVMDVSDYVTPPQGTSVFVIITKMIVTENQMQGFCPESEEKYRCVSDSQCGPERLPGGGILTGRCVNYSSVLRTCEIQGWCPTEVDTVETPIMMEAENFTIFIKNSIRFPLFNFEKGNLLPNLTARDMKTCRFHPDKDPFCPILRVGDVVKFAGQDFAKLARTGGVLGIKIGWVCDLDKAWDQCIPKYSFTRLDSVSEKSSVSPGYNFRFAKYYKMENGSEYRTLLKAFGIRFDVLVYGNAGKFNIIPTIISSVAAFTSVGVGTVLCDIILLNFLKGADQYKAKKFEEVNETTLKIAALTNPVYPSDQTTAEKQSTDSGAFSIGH

[8] = target: P2X6 (Homo sapiens, UniProt O15547); conditions: read-out: IC50 P2X6; cited from earlier work
P2X6, sequence (O15547 whole entry, species assumed): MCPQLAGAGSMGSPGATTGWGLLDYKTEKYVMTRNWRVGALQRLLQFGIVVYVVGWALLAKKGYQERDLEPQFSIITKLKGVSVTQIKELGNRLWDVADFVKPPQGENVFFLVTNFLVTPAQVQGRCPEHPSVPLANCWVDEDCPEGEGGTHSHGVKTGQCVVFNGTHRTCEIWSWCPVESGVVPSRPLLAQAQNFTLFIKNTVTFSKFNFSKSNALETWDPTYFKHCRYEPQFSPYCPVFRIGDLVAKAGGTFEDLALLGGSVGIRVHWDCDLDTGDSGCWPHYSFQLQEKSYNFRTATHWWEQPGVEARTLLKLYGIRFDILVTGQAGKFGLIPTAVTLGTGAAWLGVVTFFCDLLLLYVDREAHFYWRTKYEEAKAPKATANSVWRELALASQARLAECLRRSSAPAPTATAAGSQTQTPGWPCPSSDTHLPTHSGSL

1-amino-4-[[4-[[4-chloro-6-[[3 (or 4)-sulfophenyl]amino]-1,3,5-triazin-2-yl]amino]-3-sulfophenyl]amino]-9,10-dihydro-9,10-dioxo-2-anthracenesulfonic acid [RB-2]
IC50 [1]: 1000 nM

CCN(CC)c1ncnc2c1ncn2[C@@H]1O[C@H](COP(=O)(O)OP(=O)(O)C(Br)(Br)P(=O)(O)O)[C@@H](O)[C@H]1O [ARL67156]
OGD-induced oligodendrocyte cell death [2]: increased; also recorded: potentiated
ATP concentration after OGD ([3]; 1h OGD, ARL67156 100 µM, percentage vs control, OGD alone 181.2 ± 25.3 %): 439.6 ± 71.0%
ATP release after 1h OGD ([3]; ARL67156 100 µM): potentiated

O=C(O)c1ccccc1Nc1cccc(C(F)(F)F)c1 [FFA, 2-[3-(trifluoromethyl)anilino]benzoic acid]
OGD-induced oligodendrocyte cell death [2]: inhibited
ATP levels after OGD ([3]; 1h OGD in the presence of ARL67156, CBX 20 µM, FFA 100 µM, MFQ 1 nM (figure legend)): significantly reduced
ischaemia-induced damage to optic nerves (LDH release) [4]: reduced; also recorded: attenuated

NC(N)=NC(=O)c1nc(Cl)c(N2CCCCCC2)nc1N [HMA]
IC50 [5]: 4500 nM

CN([C@@H](Cc1ccc(OS(=O)(=O)c2cccc3cnccc23)cc1)C(=O)N1CCN(c2ccccc2)CC1)S(=O)(=O)c1cccc2cnccc12 [KN-62, ester of 4-[(2S)-2-[(5-isoquinolinylsulfonyl)methylamino]-3-oxo-3-(4-phenyl-1-piperazinyl)propyl] phenyl isoquinolinesulfonic acid]
IC50 [5]: 15 nM

Cc1nc(N=Nc2cc(S(=O)(=O)O)ccc2S(=O)(=O)O)c2c(c1O)COP(=O)(O)OC2 [MRS2220, cyclic pyridoxine-alpha.4,5-monophosphate-6-azo-phenyl-2',5'disulfonate]
IC50 [6]: 10000 nM
IC50 [7]: 58000 nM

O=C(Nc1ccc(C(=O)Nc2ccc(C(=O)Nc3ccc(S(=O)(=O)O)c4cc(S(=O)(=O)O)cc(S(=O)(=O)O)c34)cc2)cc1)Nc1ccc(C(=O)Nc2ccc(C(=O)Nc3ccc(S(=O)(=O)O)c4cc(S(=O)(=O)O)cc(S(=O)(=O)O)c34)cc2)cc1 [NF279]
IC50 [6]: 2000 nM
IC50 [1]: 770 nM
IC50 [7]: 1600 nM
IC50 [5]: 2800 nM

O=C(Nc1cc(C(=O)Nc2ccc(S(=O)(=O)O)cc2S(=O)(=O)O)cc(C(=O)Nc2ccc(S(=O)(=O)O)cc2S(=O)(=O)O)c1)Nc1cc(C(=O)Nc2ccc(S(=O)(=O)O)cc2S(=O)(=O)O)cc(C(=O)Nc2ccc(S(=O)(=O)O)cc2S(=O)(=O)O)c1 [NF449, octasodium salt of 4,4',4",4"'-(carbonylbis(imino-5,1,3-benzenetriylbis(carbonylimino)))tetrakis-benzene-1,3-disulfonic acid]
IC50 [7]: < 6 nM

Cc1nc(N=Nc2cc(S(=O)(=O)O)c3cc([N+](=O)[O-])cc(S(=O)(=O)O)c3c2)c(CO[P+]([O-])(O)O)c(C=O)c1O [PPNDS]
IC50 [1]: 15 nM

Cc1ccc(C(=O)Nc2ccc(S(=O)(=O)O)c3cc(S(=O)(=O)O)cc(S(=O)(=O)O)c23)cc1NC(=O)c1cccc(NC(=O)Nc2cccc(C(=O)Nc3cc(C(=O)Nc4ccc(S(=O)(=O)O)c5cc(S(=O)(=O)O)cc(S(=O)(=O)O)c45)ccc3C)c2)c1 [Suramin, hexasodium salt of 8,8'-[carbonylbis[imino-3,1-phenylenecarbonylimino(4-methyl-3,1-phenylene)carbonylimino]] bisnaphthalene-1,3,5-trisulphonic acid]
IC50 [1]: 1000 to 5000 nM
IC50 [8]: > 100000 nM

Nc1ncnc2c1ncn2[C@@H]1O[C@H](COP(=O)(O)OP(=O)(O)OP(=O)(O)O)[C@H]2OC3(O[C@H]21)C([N+](=O)[O-])=CC(=[N+]([O-])[O-])C=C3[N+](=O)[O-] (stereo partly shown) [TNP-ATP, monolithium salt of 2',3'-O-2,4,6-trinitrophenyl-adenosine 5'-triphosphate]
IC50 [5]: > 30000 nM

Cc1nc(/N=N/c2cc(S(=O)(=O)O)ccc2S(=O)(=O)O)c(COP(=O)(O)O)c(C=O)c1O [isoPPADS, tetrasodium salt of pyridoxalphosphate-6-azophenyl-1',4'-disulfonic acid]
IC50 [6]: 1000 to 5000 nM
IC50 [7]: 1000 nM
